Laboratory results published in patent publication US7998965B2, “Glutamate aggrecanase inhibitors” (Wyeth LLC, priority 2005, dated 2011).
Where two headings read alike, the source gives them in different places.

Experiments:
[1] = molecular target: T1, purified recombinant human Aggrecanase-2 (Ag2t-Phe628-Strep) (Homo sapiens, UniProt Q9UNA0); assay: In vitro fluorescence screen for Aggrecanase-2 inhibitors; format: biochemical; settings: for inhibition at 11 µM: read-out: Agg 2 % at concentration; for IC50: read-out: Agg 2 IC50
T1 construct: the form used is denoted as Ag2t-Phe628-Strep (MW=41,737)
T1 sequence (Q9UNA0 262-628): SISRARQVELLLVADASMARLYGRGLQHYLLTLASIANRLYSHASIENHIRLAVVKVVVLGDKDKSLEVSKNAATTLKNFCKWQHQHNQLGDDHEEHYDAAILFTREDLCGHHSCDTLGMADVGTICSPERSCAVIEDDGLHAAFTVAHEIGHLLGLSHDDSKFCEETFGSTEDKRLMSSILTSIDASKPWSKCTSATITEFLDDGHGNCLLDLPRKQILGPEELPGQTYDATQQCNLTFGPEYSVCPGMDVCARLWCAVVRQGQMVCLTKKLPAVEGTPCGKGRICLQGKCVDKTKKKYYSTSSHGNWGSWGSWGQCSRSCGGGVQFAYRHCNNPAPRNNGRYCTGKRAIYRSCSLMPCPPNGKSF

[2] = molecular target: T2, purified recombinant human Aggrecanase-1 (rAgg1) (Homo sapiens, UniProt O75173); assay: In vitro fluorescence screen for Aggrecanase-1 inhibitors; format: biochemical; parameters: Agg1 % at concentration: scale not given here; settings: for IC50: read-out: Agg1 IC50
T2 sequence (O75173 213-837): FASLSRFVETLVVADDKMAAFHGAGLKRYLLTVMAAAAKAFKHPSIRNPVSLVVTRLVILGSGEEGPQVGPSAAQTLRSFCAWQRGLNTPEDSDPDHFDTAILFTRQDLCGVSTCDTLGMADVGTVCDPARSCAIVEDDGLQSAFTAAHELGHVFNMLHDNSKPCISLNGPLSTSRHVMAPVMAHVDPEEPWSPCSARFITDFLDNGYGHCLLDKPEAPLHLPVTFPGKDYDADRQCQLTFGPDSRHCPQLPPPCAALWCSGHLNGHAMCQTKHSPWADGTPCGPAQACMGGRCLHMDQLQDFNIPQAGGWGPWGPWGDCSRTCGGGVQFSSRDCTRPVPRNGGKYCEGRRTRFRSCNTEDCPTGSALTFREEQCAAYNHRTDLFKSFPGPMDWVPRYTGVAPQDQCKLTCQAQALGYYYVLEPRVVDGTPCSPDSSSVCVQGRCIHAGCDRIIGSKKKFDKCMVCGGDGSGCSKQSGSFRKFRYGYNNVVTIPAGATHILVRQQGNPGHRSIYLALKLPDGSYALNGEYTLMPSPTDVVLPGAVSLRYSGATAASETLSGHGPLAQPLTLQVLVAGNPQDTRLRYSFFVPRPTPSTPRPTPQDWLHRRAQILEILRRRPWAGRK

| IC50 ([1]; Table 2) [nM] | IC50 ([2]; Table 2) [nM] | Structure (SMILES) | other results |
| --- | --- | --- | --- |
| – | – | COc1cc(OC)cc(OCc2cccc(-c3ccc(C(=O)N[C@@H](CCC(=O)O)C(=O)NCc4cccc(C)c4)cc3)c2)c1 [Example 15R, N^2-({3′-[(3,5-dimethoxyphenoxy)methyl]biphenyl-4-yl}carbonyl)-N-(3-methylbenzyl)-L-α-glutamine] | inhibition at 11 µM ([1]; Table 3, at 11000 (nM)): 48%; IC50 ([2]; Table 3): 560 nM |
| – | – | Cc1cccc(CNC(=O)[C@H](CCC(=O)O)NC(=O)c2ccc(-c3cccc(COc4cc(C(F)(F)F)cc(C(F)(F)F)c4)c3)cc2)c1 [Example 15S, N^2-[(3′-{[3,5-bis(trifluoromethyl)phenoxy]methyl}biphenyl-4-yl)carbonyl]-N-(3-methylbenzyl)-L-α-glutamine] | Agg 2 % at concentration ([1]; Table 3, at 33000 (nM)): 41%; Agg1 % at concentration ([2]; Table 3, at 1850 (nM)): 30% |
| – | – | O=C(O)CC[C@H](NC(=O)c1ccc(-c2ccc(OCc3cccc(-c4ccccc4)c3)cc2)cc1)C(=O)NCc1ccccc1 [Example 15U, N-benzyl-N^2-{[4′-(biphenyl-3-ylmethoxy)biphenyl-4-yl]carbonyl}-L-α-glutamine] | inhibition at 11 µM ([1]; Table 3, at 11000 (nM)): 30%; IC50 ([1]; Table 3): 600 nM; Agg1 % at concentration ([2]; Table 3, at 100 (nM)): 53%; Agg1 % at concentration ([2]; Table 3, at 1000 (nM)): 53% |
| – | – | COc1cccc(-c2cccc(COc3ccc(-c4ccc(C(=O)N[C@@H](CCC(=O)O)C(=O)NCc5ccccc5)cc4)cc3)c2)c1 [Example 15V, N-benzyl-N^2-({4′-[(3′-methoxybiphenyl-3-yl)methoxy]biphenyl-4-yl}carbonyl)-L-α-glutamine] | IC50 ([1]; Table 3): 700 nM; Agg1 % at concentration ([2]; Table 3, at 40 (nM)): 47% 40 |
| – | – | O=C(O)CC[C@H](NC(=O)c1ccc(-c2ccc(OCc3ccccc3-c3ccccc3)cc2)cc1)C(=O)NCc1ccccc1 [Example 15W, N-benzyl-N^2-{[4′-(biphenyl-2-ylmethoxy)biphenyl-4-yl]carbonyl}-L-α-glutamine] | Agg 2 % at concentration ([1]; Table 3, at 11000 (nM)): 59%; Agg1 % at concentration ([2]; Table 3, at 1900 (nM)): 56% |
| – | – | COc1cccc(-c2ccccc2COc2ccc(-c3ccc(C(=O)N[C@@H](CCC(=O)O)C(=O)NCc4ccccc4)cc3)cc2)c1 [Example 15X, N-benzyl-N^2-({4′-[(3′-methoxybiphenyl-2-yl)methoxy]biphenyl-4-yl}carbonyl)-L-α-glutamine] | Agg 2 % at concentration ([1]; Table 3, at 11000 (nM)): 52%; Agg1 % at concentration ([2]; Table 3, at 1900 (nM)): 46% |
| 841 | 220 | CC(C)(Cc1ccccc1)NC(=O)[C@H](CCC(=O)O)NC(=O)c1ccc(-c2ccc(COc3cccc(C(C)(C)C)c3)cc2)cc1 [Example 15Y, N^2-({4′-[(3-tert-butylphenoxy)methyl]biphenyl-4-yl}carbonyl)-N-(1,1-dimethyl-2-phenylethyl)-L-α-glutamine] | – |
| 6040 | 1400 | CC(C)(Cc1ccccc1)NC(=O)[C@H](CCC(=O)O)NC(=O)c1ccc(-c2ccc(COc3cc(C(C)(C)C)cc(C(C)(C)C)c3)cc2)cc1 [Example 15Z, N^2-({4′-[(3,5-di-tert-butylphenoxy)methyl]biphenyl-4-yl}carbonyl)-N-(1,1-dimethyl-2-phenylethyl)-L-α-glutamine] | – |
| 467 | < 30 | CCOc1cccc(-c2ccc(C(=O)N[C@@H](CCC(=O)O)C(=O)NCc3cc(OC)c(OC)c(OC)c3)cc2)c1 [Example 16, N^2-[(3′-ethoxybiphenyl-4-yl)carbonyl]-N-(3,4,5-trimethoxybenzyl)-L-α-glutamine] | – |
| 1120 | 116 | CCOc1ccccc1-c1ccc(C(=O)N[C@@H](CCC(=O)O)C(=O)NCc2cc(OC)c(OC)c(OC)c2)cc1 [Example 17A, N^2-[(2′-ethoxybiphenyl-4-yl)carbonyl]-N-(3,4,5-trimethoxybenzyl)-L-α-glutamine] | – |
| 5700 | 3500 | COc1cc(CNC(=O)[C@H](CCC(=O)O)NC(=O)c2ccc(-c3ccc(C(C)C)cc3)cc2)cc(OC)c1OC [Example 17AA, N^2-[(4′-isopropylbiphenyl-4-yl)carbonyl]-N-(3,4,5-trimethoxybenzyl)-L-α-glutamine] | – |
| 1020 | 204 | COc1ccc(-c2ccc(C(=O)N[C@@H](CCC(=O)O)C(=O)NCc3cc(OC)c(OC)c(OC)c3)cc2)cc1 [Example 17B, N^2-[(4′-methoxybiphenyl-4-yl)carbonyl]-N-(3,4,5-trimethoxybenzyl)-L-α-glutamine] | – |
| 2900 | 3600 | O=C(O)CC[C@H](NC(=O)c1ccc(-c2ccc3occc3c2)cc1)C(=O)NCC12CC3CC(CC(C3)C1)C2 [Example 17BB, N-(1-adamantylmethyl)-N^2-[4-(1-benzofuran-5-yl)benzoyl]-L-α-glutamine] | – |
| 80 | < 30 | COc1cccc(-c2ccc(C(=O)N[C@@H](CCC(=O)O)C(=O)NCc3cc(OC)c(OC)c(OC)c3)cc2)c1 [Example 17C, N^2-[(3′-methoxybiphenyl-4-yl)carbonyl]-N-(3,4,5-trimethoxybenzyl)-L-α-glutamine] | – |
| 2970 | 2900 | O=C(O)CC[C@H](NC(=O)c1ccc(-c2ccc3[nH]ccc3c2)cc1)C(=O)NCC12CC3CC(CC(C3)C1)C2 [Example 17CC, N-(1-adamantylmethyl)-N^2-[4-(1H-indol-5-yl)benzoyl]-L-α-glutamine] | – |
| > 200000 | > 17000 | COc1cc(CNC(=O)[C@H](CCC(=O)O)NC(=O)c2ccc(-c3cccc(C(=O)O)c3)cc2)cc(OC)c1OC [Example 17D, 4′-{[((1S)-3-carboxy-1-{[(3,4,5-trimethoxybenzyl)amino]carbonyl}propyl)amino]carbonyl}biphenyl-3-carboxylic acid] | – |
| 1190 | < 30 | CCOc1cccc(-c2ccc(C(=O)N[C@@H](CCC(=O)O)C(=O)NC(C)(C)Cc3ccc(F)cc3)cc2)c1 [Example 17DD, N^2-[(3′-ethoxybiphenyl-4-yl)carbonyl]-N-[2-(4-fluorophenyl)-1,1-dimethylethyl]-L-α-glutamine] | – |
| 1040 | 251 | CCc1ccc(-c2ccc(C(=O)N[C@@H](CCC(=O)O)C(=O)NCc3cc(OC)c(OC)c(OC)c3)cc2)cc1 [Example 17E, N^2-[(4′-ethylbiphenyl-4-yl)carbonyl]-N-(3,4,5-trimethoxybenzyl)-L-α-glutamine] | – |
| 194 | < 30 | COc1cccc(-c2ccc(C(=O)N[C@@H](CCC(=O)O)C(=O)NC(C)(C)Cc3ccc(F)cc3)cc2)c1 [Example 17EE, N-[2-(4-fluorophenyl)-1,1-dimethylethyl]-N^2-[(3′-methoxybiphenyl-4-yl)carbonyl]-L-α-glutamine] | – |
| ~8300 | 1700 | COc1ccc(-c2ccc(C(=O)N[C@@H](CCC(=O)O)C(=O)NCc3cc(OC)c(OC)c(OC)c3)cc2)cc1OC [Example 17F, N^2-[(3′,4′-dimethoxybiphenyl-4-yl)carbonyl]-N-(3,4,5-trimethoxybenzyl)-L-α-glutamine] | – |
| 13900 | 690 | CC(C)c1cccc(-c2ccc(C(=O)N[C@@H](CCC(=O)O)C(=O)NC(C)(C)Cc3ccc(F)cc3)cc2)c1 [Example 17FF, N-[2-(4-fluorophenyl)-1,1-dimethylethyl]-N^2-[(3′-isopropylbiphenyl-4-yl)carbonyl]-L-α-glutamine] | – |
| 3000 to 8000 | 1600 | COc1ccc(-c2ccc(C(=O)N[C@@H](CCC(=O)O)C(=O)NCc3cc(OC)c(OC)c(OC)c3)cc2)c(OC)c1 [Example 17G, N^2-[(2′,4′-dimethoxybiphenyl-4-yl)carbonyl]-N-(3,4,5-trimethoxybenzyl)-L-α-glutamine] | – |
| 113 | 34 | Cc1ccc(-c2ccc(C(=O)N[C@@H](CCC(=O)O)C(=O)NC(C)(C)Cc3ccc(F)cc3)cc2)cc1F [Example 17GG, N^2-[(3′-fluoro-4′-methylbiphenyl-4-yl)carbonyl]-N-[2-(4-fluorophenyl)-1,1-dimethylethyl]-L-α-glutamine] | – |
| ~22000 | 1000 | COc1cc(CNC(=O)[C@H](CCC(=O)O)NC(=O)c2ccc(-c3cc(OC)c(OC)c(OC)c3)cc2)cc(OC)c1OC [Example 17H, N-(3,4,5-trimethoxybenzyl)-N^2-[(3′,4′,5′-trimethoxybiphenyl-4-yl)carbonyl]-L-α-glutamine] | – |
| 6320 | 2200 | CC(C)Cc1ccc(-c2ccc(C(=O)N[C@@H](CCC(=O)O)C(=O)NC(C)(C)Cc3ccc(F)cc3)cc2)cc1 [Example 17HH, N-[2-(4-fluorophenyl)-1,1-dimethylethyl]-N^2-[(4′-isobutylbiphenyl-4-yl)carbonyl]-L-α-glutamine] | – |
